Data reported in patent publication US5565425A, “Viral infection and proliferation inhibitors” (Snow Brand Milk Products Co., Ltd, priority 1993, dated 1996).
Bridge positions count the residues as written; N and C are the ends. Peptide text beside a SMILES is read from it.

Legend:
[1] = tested on: mouse cytomegalo virus (mouse CMV); assay: In vivo inhibitory activity against mouse CMV infection (survival of mice); conditions: after 10 days
Protocol: (§1) (Method) Male Balbc/AJcl mice, 4-week-old (10 in one group) were used. The sample was dissolved in phosphate buffer saline solution (PBS) and intraperitoneally administered to mice.

[2] = tested on: mouse cytomegalo virus (mouse CMV); assay: Infection protective test against mouse CMV by the time of administration; type: in vivo; conditions: mice, 0.10 g/kg i.p., after 10 days
Protocol: as §1, with “mice. […] Timing of administrations of the sample was made 48, 24, six and one hr. before, immediately after, one and six hrs. after the administration.” for “mice.”

[3] = tested on: influenza virus A/PR/8/34; conditions: 100 μl of one mg/ml solution in allantoic cavity three hours before virus; average of five eggs
[4] = tested on: HIV (HTLV-IIIB); assay: Inhibitory activity against HIV infection and proliferation in MT-4 cells (indirect fluorescence antibody method); type: cell-based, human immunodeficiency virus (HIV); conditions: three days, positive control 26.0%
Protocol: (Method) Cultured supernatant of MOLT-4/HTLV-IIIB cells, a HTLV-IIIB persistent infected strain of HIV, was used as a viral solution. The supernatant was kept at -80° C. Human T cell line MT-4 was used for the test. MT-4 was subcultured in RPMI 1640 medium containing 10% fetal calf serum (FCS). Sample, LF derived peptide, was dissolved in RPMI 1640 medium and one ml of the diluted solution at various concentrations was added to the cells. The inoculated MT-4 test sample was incubated for 60 minutes and infected with HIV at a concentration of moi […]=0.01 and one ml of the cell solution adjusted at a cell density of 3×10^5 cells/ml was added. The cells were cultured for three days : and HIV infected cells were determined with an indirect fluorescence antibody method.
HIV infected cells were determined by the indirect fluorescence antibody method using HIV infected patient serum as a primary antibody. […] HIV infected MT-4 cells cultured without addition of the sample was used as a positive control and cells without addition of viral solution was cultured to make a negative control group.

[5] = tested on: Human CMV (Tanaka strain); assay: Inhibitory activity against human CMV infection and proliferation in HELF cells (fluorescence staining); type: cell-based, Human cytomegalo virus
Protocol: (Method) LF derived peptide was dissolved in 2% serum added MEM medium to give five mg/ml solution, filtered and sterilized to make a stock solution. The stock solution was diluted with 2% serum added MEM medium on use. Samples containing human embryo lung fibroblast cells (HELF cells) were suspended in 2% serum added MEM medium and incubated for 10 minutes. The cells were collected by centrifugation, washed twice with 2% serum added MEM medium and suspended in 2% serum added MEM medium. Human cytomegalo virus [Human CMV (Tanaka strain)] was added, incubated for 24 hrs., fluorescence stained with human CMV positive serum and the adsorption rate of human CMV to the cells was determined.
The results are judged from the numbers of fluorescent stained cells per one cover slip.

With `CC[C@H](C)[C@H](NC(=O)[C@@H]1CSSC[C@H](NC(=O)[C@H](CCCCN)NC(=O)[C@@H](N)[C@@H](C)O)C(=O)N[C@@H](Cc2ccccc2)C(=O)N[C@@H](CCC(N)=O)C(=O)N[C@@H](Cc2c[nH]c3ccccc23)C(=O)N[C@@H](CCC(N)=O)C(=O)N[C@@H](CCCNC(=N)N)C(=O)N[C@@H](CC(N)=O)C(=O)N[C@@H](CCSC)C(=O)N[C@@H](CCCNC(=N)N)C(=O)N[C@@H](CCCCN)C(=O)N[C@@H](C(C)C)C(=O)N[C@@H](CCCNC(=N)N)C(=O)NCC(=O)N2CCC[C@H]2C(=O)N2CCC[C@H]2C(=O)N[C@@H](C(C)C)C(=O)N[C@@H](CO)C(=O)N1)C(=O)N[C@@H](CCCCN)C(=O)N[C@@H](CCCNC(=N)N)C(=O)N[C@@H](CC(=O)O)C(=O)N[C@@H](CO)C(=O)O` [Human LF (18-42)] (H-TKCFQWQRNMRKVRGPPVSCIKRDS-OH; disulfide 3-20) the Survival rate ([1]; 0.02 g/kg of body weight i.p. 24 hrs. before mouse CMV) was 20%, the Survival rate ([1]; 0.05 g/kg of body weight i.p. 24 hrs. before mouse CMV) was 50% and the Survival rate ([1]; 0.10 g/kg of body weight i.p. 24 hrs. before mouse CMV) was 100%. The Survival rate ([1]; 0.50 g/kg of body weight i.p. 24 hrs. before mouse CMV) was 100%, the Survival rate ([2]; time of administration 0 hrs.) was 100% and the Survival rate ([2]; time of administration +1 hrs.) was 100%. For the same compound, the Survival rate ([2]; time of administration +6 hrs.) was 60%, the Survival rate ([2]; time of administration -1 hrs.) was 100% and the Survival rate ([2]; time of administration -6 hrs.) was 100%. The Survival rate ([2]; time of administration -24 hrs.) was 100%, the Survival rate ([2]; time of administration -48 hrs.) was 60% and the “Inhibitory rate of infection and proliferation of influenza virus” value [3] was 96.9%. The “ratio of stained (HIV infected) cells” value ([4]; sample 63 μg/ml) was 17%, the “ratio of stained (HIV infected) cells” value ([4]; sample 125 μg/ml) was 8.8% and the “ratio of stained (HIV infected) cells” value ([4]; sample 250 μg/ml) was 6.7%. The “ratio of stained (HIV infected) cells” value ([4]; sample 500 μg/ml) was 2.9%, the “ratio of stained (HIV infected) cells” value ([4]; sample 1,000 μg/ml) was 1.1% and the “Inhibitory rate of human CMV infection” value ([5]; 24 hrs., concentration not given) was 95.7%. The “Inhibitory rate (human CMV infection and proliferation)” value ([5]; concentration 0.04 mg/ml) was 14.7%, the “Inhibitory rate (human CMV infection and proliferation)” value ([5]; concentration 0.1 mg/ml) was 34.9% and the “Inhibitory rate (human CMV infection and proliferation)” value ([5]; concentration 0.2 mg/ml) was 45.0%. The “Inhibitory rate (human CMV infection and proliferation)” value ([5]; concentration 0.4 mg/ml) was 51.9%, the “Inhibitory rate (human CMV infection and proliferation)” value ([5]; concentration 1.0 mg/ml) was 86.0% and the “Inhibitory rate (human CMV infection and proliferation)” value ([5]; concentration 2.0 mg/ml) was 96.1%.
